Consider one compound from PMC6942458 (ACS chemical biology, 2019).

The target in one data set is T1, SIRT3 (Homo sapiens, UniProt Q9NTG7).
T1 sequence (Q9NTG7 1-399): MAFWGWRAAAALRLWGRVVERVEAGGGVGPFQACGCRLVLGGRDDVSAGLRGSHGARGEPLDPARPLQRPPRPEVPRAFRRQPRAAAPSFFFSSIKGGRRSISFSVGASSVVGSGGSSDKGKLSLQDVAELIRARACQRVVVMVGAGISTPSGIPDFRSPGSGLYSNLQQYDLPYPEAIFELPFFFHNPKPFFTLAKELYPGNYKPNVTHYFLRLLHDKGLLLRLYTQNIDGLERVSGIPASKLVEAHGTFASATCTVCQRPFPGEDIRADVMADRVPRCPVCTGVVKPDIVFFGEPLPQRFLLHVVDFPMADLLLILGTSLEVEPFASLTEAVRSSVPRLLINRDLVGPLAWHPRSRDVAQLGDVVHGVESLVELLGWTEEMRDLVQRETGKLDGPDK
Description: SIRT3 deacetylase inhibition assay. Type of data set: biochemical.

The subject of data set [1] is MCF7 cells. Description: MCF7 cell permeability/availability assay. Particulars: for level of inhibitor detected in cells: 6 hours. The class given is in vitro ADME.
For data set [2], the system named is MCF7 cells. The data set is described as follows: Soft agar colony formation assay. Type of data set: cell-based. Particulars: MCF7, 12 μM, 10 days.
For data set [3] the following is noted: 50 mM DMSO stock diluted to 5 mg/ml in PBS.
Data set [4] concerns various cancer cell lines. To be noted: breast, pancreatic, colon, lung and many more; cited from earlier work.
A further data set has as its system breast cancers. To be noted: xenograft model and genetic model of breast cancers in mice; cited from earlier work.

Turning to `CCCCCCCCCCCCCC(=S)NCCCCC(NC(=O)OCc1ccccc1)C(=O)Nc1ccccc1` (centres unmarked) [TM], the “SIRT3 inhibition at 83 μM” value at SIRT3 is reported as “did not inhibit”. The “level of inhibitor detected in cells” value in the data set with MCF7 cells [1] (MCF7, 25 μM) is “about 0.29 μg/million cells”; with MCF7 cells [1] (MCF7, 50 μM), ~0.30 μg/million cells. The “compound detected in treated cells” value in the data set on MCF7 cells [1] (MCF7 cells treated 6 hours, LC-MS) was “approximately 0.30 μg/million cells”. Besides, the “colony formation in soft agar” value in the data set on MCF7 cells [2] is given as “formed many colonies”. In addition, in data set [3], the “solubility in PBS (precipitation)” value is “white precipitation formed instantly”. Besides, the “cytotoxicity in cancer cell lines” value in data set [4] was “cytotoxic”. The tumor growth result in the data set with breast cancers is on record as “inhibited tumor growth”.
